From patent US20030113268A1, “Degradation-resistant glucocorticosteroid formulations” (priority 2000, published 2003)

Test: Comparison of radical quenchers: impurities on storage at 40° C. and 75% relative humidity, uncoated canisters
Type: physicochemical
Conditions: for effectiveness in reducing degradation of the budesonide formulations: Tables X-XII, 40° C./75% relative humidity
From the text: To compare the effectiveness of various radical quenchers in preventing degradation of budesonide formulations, formulations containing budesonide, HFA-134a, ethanol, and a radical quencher were made in uncoated canisters using the steps described in Example I. The compositions of the formulations are shown in Table IX. Formulations were made containing each radical quencher with and without 3% aqueous hydrogen peroxide. The hydrogen peroxide was included in some formulations to challenge the radical quencher.
The initial impurities in each formulation were measured, and the formulations were stored at 40° C. and 75% relative humidity. Impurities were measured again after 4 weeks and after 3 months. For selected formulations, impurities were also measured after 11 months.

| Compound | effectiveness in reducing degradation of the budesonide formulations | physical stability of formulations including the radical quencher (clumping) (budesonide/ethanol/HFA-134a formulations) |
| --- | --- | --- |
| CCCCCCCCCCCCCCCC(=O)OC[C@H](O)[C@H]1OC(=O)C(O)=C1O [ascorbyl palmitate] | very effective | tended to form clumps of solid matter |
| COc1ccc(O)c(C(C)(C)C)c1 [butylated hydroxyanisole (BHA), butylated hydroxyanisole] | very effective |  |
| Vitamin E | effectively reduced degradation |  |
